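Test compounds were applied to cells in 96-well plates for 48 hours at 5 doses. GI50: concentration for 50% inhibition of growth. At the TGI there is no net growth.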
Assays:
Assay in all cases: NCI anticancer screen, dose series, 48 h
NCI-H522 lung = test system: NCI-H522 lung
SF-539 CNS = test system: SF-539 CNS
SF-295 CNS = test system: SF-295 CNS
T-47D breast = test system: T-47D breast
HCT-15 colon = test system: HCT-15 colon
DU-145 prostate = test system: DU-145 prostate
NCI-H226 lung = test system: NCI-H226 lung
786-0 renal = test system: 786-0 renal
MOLT-4 leukemia = test system: MOLT-4 leukemia
SF-268 CNS = test system: SF-268 CNS
HT29 colon = test system: HT29 colon
UACC-62 melanoma = test system: UACC-62 melanoma
NCI/ADR-RES ovarian = test system: NCI/ADR-RES ovarian
HOP-92 NSCLC = test system: HOP-92 NSCLC
A549 NSCLC = test system: A549 NSCLC
MALME-3M melanoma = test system: MALME-3M melanoma
MCF7 breast = test system: MCF7 breast
PC-3 prostate = test system: PC-3 prostate
CAKI-1 renal = test system: CAKI-1 renal
IGROV1 ovarian = test system: IGROV1 ovarian
EKVX NSCLC = test system: EKVX NSCLC
SW-620 colon = test system: SW-620 colon
NCI-H460 lung = test system: NCI-H460 lung
OVCAR-4 ovarian = test system: OVCAR-4 ovarian
MDA-MB-231 breast = test system: MDA-MB-231 breast
BT-549 breast = test system: BT-549 breast
HS 578T breast = test system: HS 578T breast
UO-31 renal = test system: UO-31 renal
K-562 leukemia = test system: K-562 leukemia
ACHN renal = test system: ACHN renal
OVCAR-3 ovarian = test system: OVCAR-3 ovarian
HCT-116 colon = test system: HCT-116 colon
MDA-MB-435 = test system: MDA-MB-435
NCI-H23 lung = test system: NCI-H23 lung
SK-MEL-5 melanoma = test system: SK-MEL-5 melanoma
TK-10 renal = test system: TK-10 renal
OVCAR-5 ovarian = test system: OVCAR-5 ovarian
SK-OV-3 ovarian = test system: SK-OV-3 ovarian
SR leukemia = test system: SR leukemia
OVCAR-8 ovarian = test system: OVCAR-8 ovarian
COLO 205 colon = test system: COLO 205 colon
KM12 colon = test system: KM12 colon
A498 renal = test system: A498 renal
M14 melanoma = test system: M14 melanoma
HCC-2998 colon = test system: HCC-2998 colon
HL-60(TB) leukemia = test system: HL-60(TB) leukemia
RXF 393 renal = test system: RXF 393 renal
CCRF-CEM leukemia = test system: CCRF-CEM leukemia
RPMI-8226 leukemia = test system: RPMI-8226 leukemia
LOX IMVI melanoma = test system: LOX IMVI melanoma
SK-MEL-2 melanoma = test system: SK-MEL-2 melanoma
SNB-75 CNS = test system: SNB-75 CNS
SK-MEL-28 melanoma = test system: SK-MEL-28 melanoma
SN12C renal = test system: SN12C renal
HOP-62 NSCLC = test system: HOP-62 NSCLC
U251 CNS = test system: U251 CNS

`O=C(Nc1ccc(Cl)cc1)c1cc2ccccc2cc1OP(=O)(O)O` gave a GI50 (NCI-H522 lung) of 3.29 µM, a TGI (NCI-H522 lung) of 38.1 µM and a GI50 (SF-539 CNS) of 4.4 µM. It also gave a TGI (SF-539 CNS) of 19.2 µM, a GI50 (SF-295 CNS) of 8.6 µM and a TGI (SF-295 CNS) of 31.9 µM. It also gave a GI50 (T-47D breast) of 3.98 µM, a TGI (T-47D breast) of 35.2 µM and a GI50 (HCT-15 colon) of 3.55 µM. It also gave a TGI (HCT-15 colon) greater than 100 µM, a GI50 (DU-145 prostate) of 3.94 µM and a TGI (DU-145 prostate) of 17.8 µM. The GI50 (NCI-H226 lung) was 2.97 µM, the TGI (NCI-H226 lung) was 16.9 µM and the GI50 (786-0 renal) was 3.59 µM. For the same molecule, the TGI (786-0 renal) was 13.4 µM, the GI50 (MOLT-4 leukemia) was 24.8 µM and the TGI (MOLT-4 leukemia) was greater than 100 µM. The GI50 (SF-268 CNS) was 3.9 µM, the TGI (SF-268 CNS) was 40 µM and the GI50 (HT29 colon) was 28.9 µM. It also gave a TGI (HT29 colon) greater than 100 µM, a GI50 (UACC-62 melanoma) of 2.66 µM and a TGI (UACC-62 melanoma) greater than 100 µM. It also gave a GI50 (NCI/ADR-RES ovarian) of 3.51 µM, a TGI (NCI/ADR-RES ovarian) greater than 100 µM and a GI50 (HOP-92 NSCLC) of 2.46 µM. The TGI (HOP-92 NSCLC) was 8.45 µM, the GI50 (A549 NSCLC) was 4.85 µM and the TGI (A549 NSCLC) was greater than 100 µM. It also gave a GI50 (MALME-3M melanoma) of 1.91 µM, a TGI (MALME-3M melanoma) of 7.3 µM and a GI50 (MCF7 breast) of 5.52 µM. It also gave a TGI (MCF7 breast) of 40.9 µM, a GI50 (PC-3 prostate) of 2.92 µM and a TGI (PC-3 prostate) greater than 100 µM. For the same molecule, the GI50 (CAKI-1 renal) was 1.77 µM, the TGI (CAKI-1 renal) was 11.1 µM and the GI50 (IGROV1 ovarian) was 3.81 µM. It also gave a TGI (IGROV1 ovarian) of 95.2 µM, a GI50 (EKVX NSCLC) of 2.82 µM and a TGI (EKVX NSCLC) of 25.2 µM. For the same molecule, the GI50 (SW-620 colon) was 4.07 µM, the TGI (SW-620 colon) was 37.5 µM and the GI50 (NCI-H460 lung) was 3.43 µM. The TGI (NCI-H460 lung) was 16.8 µM, the GI50 (OVCAR-4 ovarian) was 4.88 µM and the TGI (OVCAR-4 ovarian) was greater than 100 µM. It also gave a GI50 (MDA-MB-231 breast) of 3.01 µM, a TGI (MDA-MB-231 breast) of 16.6 µM and a GI50 (BT-549 breast) of 2.89 µM. It also gave a TGI (BT-549 breast) of 9.24 µM, a GI50 (HS 578T breast) of 2.96 µM and a TGI (HS 578T breast) of 19.8 µM. For the same molecule, the GI50 (UO-31 renal) was 3.75 µM, the TGI (UO-31 renal) was greater than 100 µM and the GI50 (K-562 leukemia) was 53.8 µM. It also gave a TGI (K-562 leukemia) greater than 100 µM, a GI50 (ACHN renal) of 3.04 µM and a TGI (ACHN renal) of 49.3 µM. The GI50 (OVCAR-3 ovarian) was 3.22 µM, the TGI (OVCAR-3 ovarian) was 11.2 µM and the GI50 (HCT-116 colon) was 3 µM. It also gave a TGI (HCT-116 colon) of 11.9 µM, a GI50 (MDA-MB-435) of 3.27 µM and a TGI (MDA-MB-435) of 32.3 µM. The GI50 (NCI-H23 lung) was 2.42 µM, the TGI (NCI-H23 lung) was 9.95 µM and the GI50 (SK-MEL-5 melanoma) was 2.89 µM. For the same molecule, the TGI (SK-MEL-5 melanoma) was 8.83 µM, the GI50 (TK-10 renal) was 3.65 µM and the TGI (TK-10 renal) was 14.1 µM. It also gave a GI50 (OVCAR-5 ovarian) of 6.51 µM, a TGI (OVCAR-5 ovarian) of 42.3 µM and a GI50 (SK-OV-3 ovarian) of 2.51 µM. The TGI (SK-OV-3 ovarian) was 16.9 µM, the GI50 (SR leukemia) was 23.7 µM and the TGI (SR leukemia) was greater than 100 µM. The GI50 (OVCAR-8 ovarian) was 4.73 µM, the TGI (OVCAR-8 ovarian) was greater than 100 µM and the GI50 (COLO 205 colon) was 14.5 µM. It also gave a TGI (COLO 205 colon) of 27.8 µM, a GI50 (KM12 colon) of 3.14 µM and a TGI (KM12 colon) of 13.7 µM. For the same molecule, the GI50 (A498 renal) was 2.79 µM, the TGI (A498 renal) was 19.4 µM and the GI50 (M14 melanoma) was 3.74 µM. The TGI (M14 melanoma) was 56.6 µM, the GI50 (HCC-2998 colon) was 4.19 µM and the TGI (HCC-2998 colon) was 29.9 µM. For the same molecule, the GI50 (HL-60(TB) leukemia) was greater than 100 µM, the TGI (HL-60(TB) leukemia) was greater than 100 µM and the GI50 (RXF 393 renal) was 6.64 µM. The TGI (RXF 393 renal) was 71.1 µM, the GI50 (CCRF-CEM leukemia) was 2.82 µM and the TGI (CCRF-CEM leukemia) was greater than 100 µM. For the same molecule, the GI50 (RPMI-8226 leukemia) was 1.52 µM, the TGI (RPMI-8226 leukemia) was 6.02 µM and the GI50 (LOX IMVI melanoma) was 3.52 µM. It also gave a TGI (LOX IMVI melanoma) of 17.5 µM, a GI50 (SK-MEL-2 melanoma) of 3.58 µM and a TGI (SK-MEL-2 melanoma) of 24.4 µM. For the same molecule, the GI50 (SNB-75 CNS) was 2.03 µM, the TGI (SNB-75 CNS) was 25.2 µM and the GI50 (SK-MEL-28 melanoma) was 4.88 µM. The TGI (SK-MEL-28 melanoma) was 55.3 µM, the GI50 (SN12C renal) was 3.4 µM and the TGI (SN12C renal) was greater than 100 µM. The GI50 (HOP-62 NSCLC) was 3.57 µM, the TGI (HOP-62 NSCLC) was 17 µM and the GI50 (U251 CNS) was 3.74 µM. For the same molecule, the TGI (U251 CNS) was 21.3 µM.

— PubChem BioAssay (NCI)
